Source: patent US11739070B2, “C5A receptor modulators” (IDORSIA PHARMACEUTICALS LTD, priority 2018, dated 2023)

Target: T1, C5AR1 (Homo sapiens, UniProt P21730)
T1 construct: host or cells: CHO-K1
T1 sequence (P21730 1-350): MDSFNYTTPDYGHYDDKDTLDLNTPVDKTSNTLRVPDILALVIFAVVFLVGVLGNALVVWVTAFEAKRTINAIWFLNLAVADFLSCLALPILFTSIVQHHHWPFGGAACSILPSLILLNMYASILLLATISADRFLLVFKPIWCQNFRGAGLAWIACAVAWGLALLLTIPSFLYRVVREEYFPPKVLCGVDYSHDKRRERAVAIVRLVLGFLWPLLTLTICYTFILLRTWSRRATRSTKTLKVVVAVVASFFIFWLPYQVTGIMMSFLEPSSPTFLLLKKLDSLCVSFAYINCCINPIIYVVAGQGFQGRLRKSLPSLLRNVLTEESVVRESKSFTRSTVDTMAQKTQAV
Test: hC5a DISCO IC50 assay (PathHunter beta-arrestin, antagonist mode)
Assay type: cell-based
Details: CHO-K1 C5AR1 beta-arrestin cell line; antagonist vs 1-10 nM C5a agonist; geometric mean values; read-out: C5aR IC50
In short: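 Antagonist added first, then 1-10 nM C5a agonist; cells incubated 1.5 h at 37 °C. Beta-arrestin signal developed with PathHunter detection reagent, 45 min at RT. IC50 in nmol/l from serial antagonist dilutions, reported as geometric mean of several measurements.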

SMILES: COc1cc(Cl)nnc1Cn1c(=O)n([C@@H]2CCN(c3c(C)cccc3F)C2)c2cccc(OC)c21 [Example 92, 3-(6-Chloro-4-methoxy-pyridazin-3-ylmethyl)-1-[(R)-1-(2-fluoro-6-methyl-phenyl)-pyrrolidin-3-yl]-4-methoxy-1,3-dihydro-benzoimidazol-2-one]
- IC50: 2020 nM

SMILES: Cc1cccc(C)c1N1CC[C@@H](n2c(=O)n(Cc3ccccc3C(F)(F)F)c3c(=O)[nH]ccc32)C1 [Example 93, 1-[(R)-1-(2,6-Dimethyl-phenyl)-pyrrolidin-3-yl]-3-(2-trifluoromethyl-benzyl)-3,5-dihydro-1H-imidazo[4,5-c]pyridine-2,4-dione]
- IC50: 149 nM

SMILES: COc1cccc(C)c1N1CC[C@@H](n2c(=O)n(Cc3ccccc3C(F)(F)F)c3c(=O)[nH]ccc32)C1 [Example 94, 1-[(R)-1-(2-Methoxy-6-methyl-phenyl)-pyrrolidin-3-yl]-3-(2-trifluoromethyl-benzyl)-3,5-dihydro-1H-imidazo[4,5-c]pyridine-2,4-dione]
- IC50: 313 nM

SMILES: COc1ccnnc1Cn1c(=O)n([C@@H]2CCN(c3c(C)cccc3F)C2)c2cccc(OC)c21 [Example 95, 1-[(R)-1-(2-Fluoro-6-methyl-phenyl)-pyrrolidin-3-yl]-4-methoxy-3-(4-methoxy-pyridazin-3-ylmethyl)-1,3-dihydro-benzoimidazol-2-one]
- IC50: 191 nM

SMILES: COc1cccc2c1n(Cc1nccnc1C(F)(F)F)c(=O)n2C1CCN(c2c(F)cccc2C#N)CC1 [Example 96, 3-Fluoro-2-{4-[4-methoxy-2-oxo-3-(3-trifluoromethyl-pyrazin-2-ylmethyl)-2,3-dihydro-benzoimidazol-1-yl]-piperidin-1-yl}-benzonitrile]
- IC50: 231 nM

SMILES: COc1nccnc1Cn1c(=O)n(C2CCN(c3c(F)cccc3C#N)CC2)c2cccc(OC)c21 [Example 97, 3-Fluoro-2-{4-[4-methoxy-3-(3-methoxy-pyrazin-2-ylmethyl)-2-oxo-2,3-dihydro-benzoimidazol-1-yl]-piperidin-1-yl}-benzonitrile]
- IC50: 1350 nM

SMILES: COC(=O)c1cccc2c1n(Cc1ccccc1C(F)(F)F)c(=O)n2[C@@H]1CCN(c2c(F)cccc2C#N)C1 [Example 98, 1-[(R)-1-(2-Cyano-6-fluoro-phenyl)-pyrrolidin-3-yl]-2-oxo-3-(2-trifluoromethyl-benzyl)-2,3-dihydro-1H-benzoimidazole-4-carboxylic acid methyl ester]
- IC50: 165 nM

SMILES: CNC(=O)c1cccc2c1n(Cc1ccccc1C(F)(F)F)c(=O)n2[C@@H]1CCN(c2c(F)cccc2C#N)C1 [Example 99, 1-[(R)-1-(2-Cyano-6-fluoro-phenyl)-pyrrolidin-3-yl]-2-oxo-3-(2-trifluoromethyl-benzyl)-2,3-dihydro-1H-benzoimidazole-4-carboxylic acid methylamide]
- IC50: 391 nM

SMILES: N#Cc1cccc(F)c1N1CC[C@@H](n2c(=O)n(Cc3ccccc3C(F)(F)F)c3c(C(N)=O)cccc32)C1 [Example 100, 1-[(R)-1-(2-Cyano-6-fluoro-phenyl)-pyrrolidin-3-yl]-2-oxo-3-(2-trifluoromethyl-benzyl)-2,3-dihydro-1H-benzoimidazole-4-carboxylic acid amide]
- IC50: 1430 nM

SMILES: CN(C)C(=O)c1cccc2c1n(Cc1ccccc1C(F)(F)F)c(=O)n2[C@@H]1CCN(c2c(F)cccc2C#N)C1 [Example 101, 1-[(R)-1-(2-Cyano-6-fluoro-phenyl)-pyrrolidin-3-yl]-2-oxo-3-(2-trifluoromethyl-benzyl)-2,3-dihydro-1H-benzoimidazole-4-carboxylic acid dimethylamide]
- IC50: 1580 nM

SMILES: N#Cc1cccc(F)c1N1CC[C@@H](n2c(=O)n(Cc3ccccc3C(F)(F)F)c3c(CO)cccc32)C1 [Example 102, 3-Fluoro-2-{(R)-3-[4-hydroxymethyl-2-oxo-3-(2-trifluoromethyl-benzyl)-2,3-dihydro-benzoimidazol-1-yl]-pyrrolidin-1-yl}-benzonitrile]
- IC50: 759 nM

SMILES: CNCc1cccc(F)c1N1CC[C@@H](n2c(=O)n(Cc3ccccc3C(F)(F)F)c3c(OC)cccc32)C1 [Example 103, 1-[(R)-1-(2-Fluoro-6-methylaminomethyl-phenyl)-pyrrolidin-3-yl]-4-methoxy-3-(2-trifluoromethyl-benzyl)-1,3-dihydro-benzoimidazol-2-one]
- IC50: 669 nM

SMILES: COc1ncnc2c1n(Cc1ccccc1C(F)(F)F)c(=O)n2[C@@H]1CCN(c2c(F)cccc2C#N)C1 [Example 104, 3-Fluoro-2-{(R)-3-[6-methoxy-8-oxo-7-(2-trifluoromethyl-benzyl)-7,8-dihydro-purin-9-yl]-pyrrolidin-1-yl}-benzonitrile]
- IC50: 863 nM

SMILES: COc1ccccc1Cn1c(=O)n([C@@H]2CCN(c3c(F)cccc3C#N)C2)c2ncnc(OC)c21 [Example 105, 3-Fluoro-2-{(R)-3-[6-methoxy-7-(2-methoxy-benzyl)-8-oxo-7,8-dihydro-purin-9-yl]-pyrrolidin-1-yl}-benzonitrile]
- IC50: 4480 nM

SMILES: COc1cccc2c1n(Cc1ccccc1C(F)(F)F)c(=O)n2[C@@H]1CCN(c2c(F)cccc2CN(C)C)C1 [Example 106, 1-[(R)-1-(2-Dimethylaminomethyl-6-fluoro-phenyl)-pyrrolidin-3-yl]-4-methoxy-3-(2-trifluoromethyl-benzyl)-1,3-dihydro-benzoimidazol-2-one]
- IC50: 227 nM

SMILES: COc1cccc2c1n(Cc1ccccc1C(F)(F)F)c(=O)n2[C@@H]1CCN(c2c(F)cccc2CN(C)CCO)C1 [Example 107, 1-[(R)-1-(2-Fluoro-6-{[(2-hydroxy-ethyl)-methyl-amino]-methyl}-phenyl)-pyrrolidin-3-yl]-4-methoxy-3-(2-trifluoromethyl-benzyl)-1,3-dihydro-benzoimidazol-2-one]
- IC50: 1320 nM

SMILES: COc1cccc2c1n(Cc1ccccc1C(F)(F)F)c(=O)n2[C@@H]1CCN(c2c(F)cccc2CN2CCC2)C1 [Example 108, 1-[(R)-1-(2-Azetidin-1-ylmethyl-6-fluoro-phenyl)-pyrrolidin-3-yl]-4-methoxy-3-(2-trifluoromethyl-benzyl)-1,3-dihydro-benzoimidazol-2-one]
- IC50: 360 nM

SMILES: COc1ccccc1Cn1c(=O)n([C@@H]2CCN(c3c(F)cccc3C#N)C2)c2cccc(OC)c21 [Example 109, 3-Fluoro-2-{(R)-3-[4-methoxy-3-(2-methoxy-benzyl)-2-oxo-2,3-dihydro-benzoimidazol-1-yl]-pyrrolidin-1-yl}-benzonitrile]
- IC50: 61 nM

SMILES: COc1ccccc1Cn1c(=O)n([C@@H]2CCN(c3c(C)cccc3F)C2)c2cccc(OC)c21 [Example 110, 1-[(R)-1-(2-Fluoro-6-methyl-phenyl)-pyrrolidin-3-yl]-4-methoxy-3-(2-methoxy-benzyl)-1,3-dihydro-benzoimidazol-2-one]
- IC50: 6 nM

SMILES: COc1cccc2c1n(Cc1nccnc1C(F)(F)F)c(=O)n2[C@@H]1CCN(c2c(F)cccc2C#N)C1 [Example 111, 3-Fluoro-2-{(R)-3-[4-methoxy-2-oxo-3-(3-trifluoromethyl-pyrazin-2-ylmethyl)-2,3-dihydro-benzoimidazol-1-yl]-pyrrolidin-1-yl}-benzonitrile]
- IC50: 264 nM

SMILES: COc1nccnc1Cn1c(=O)n([C@@H]2CCN(c3c(F)cccc3C#N)C2)c2cccc(OC)c21 [Example 112, 3-Fluoro-2-{(R)-3-[4-methoxy-3-(3-methoxy-pyrazin-2-ylmethyl)-2-oxo-2,3-dihydro-benzoimidazol-1-yl]-pyrrolidin-1-yl}-benzonitrile]
- IC50: 511 nM
